From patent publication US20220047587A1, “SYNERGISTIC COMPOSITIONS COMPRISING R-2-(SUBSTITUTED-SULFONYL)-HEXAHYDRO-PYRROLO[1,2-A]PYRAZIN-6(2H)-ONES AND S-2-(SUBSTITUTED-SULFONYL)-HEXAHYDRO-PYRROLO[1,2-A]PYRAZIN-6(2H)-ONES IN A NON-RACEMIC RATIO” (Metys Pharmaceuticals AG, priority 2018, published 2022)
Marks after values point to notes of the source that are not given here.

Experiments:
[1] = system: streptozotocin-treated mice; assay: Streptozotocin diabetic peripheral neuropathy model, thermal hyperalgesia after oral administration; type: in vivo, mouse; conditions: p.o.
Text: (§1) Results are expressed as the minimum dose (via the indicated route) at which a statistically-significant difference is observed when compared to time-matched injured rats receiving a vehicle administration by the same route. An analysis of variance, ANOVA, followed by Fisher's protected least significant difference procedure for post hoc comparison, was used to verify significance between two means of hyperalgesic behavioral results from the Randall & Selitto apparatus paw pressure test (“anti-hyperalgesia”) or from the Von Frey test (“mechanical allodynia”) or from the Cold Plate test (“cold allodynia”). P values 0.05 were considered significant. This definition applies to any doses specified herein as inhibiting “in a statistically significant manner”.
Mice (=30 g) were injected intravenously in the tail with 200 mg/kg streptozotocin (Wako Pure Chemicals, Richmond, Va.) prepared in saline adjusted to pH 4.5 in 0.1 N citrate buffer. Age-matched non-diabetic control mice were injected with the vehicle alone. Streptozotocin solutions were freshly prepared due to the limited stability of the compound. Animals were kept in a group of four per cage with special care of food and water supplement. The bed of the cage was changed every day. […] The serum glucose level was measured by glucose oxidase method from blood samples obtained by tail vein pricking. […] Animals at 7 days post-streptozotocin treatment were used in the study. […] Injections were performed using a Hamilton microliter syringe fitted with a 26-gauge needle, according to the method of Haley and McCormick (1957). The site of injection was 2 mm caudal and 2 lateral to the bregma, and 3 mm in depth from the skull surface. The injection volume was 5 μl.

CCI rats = assay: Chronic constriction injury (CCI) model, mechanical allodynia after oral administration; type: in vivo, rat; conditions: p.o.
Text: as §1
Each animal was placed in a chamber with a mesh metal floor covered by a plastic dome that enabled the animal to walk freely, but not to jump. The mechanical stimulus was then delivered in the mid-plantar skin of left hind paw using an electronic von Frey apparatus (37400 Dynamic Plantar Aesthesiometer, Ugo Basile, Comerio, Varese, Italy). The cut-off was set at 50 g, while the increasing force rate (ramp duration) was set at 20 s. In the single administration protocol, pain threshold measurements have been performed before (pre-dose) and at regular intervals after treatment. In the repeated treatment protocol, the pre-test value was measured 13 h after the last administration; afterward the animals received a new administration and measures were performed at the described times. Results are expressed in […] and represent the mean±S.E.M. of mechanical thresholds.
To evaluate the effect of test compounds in comparison to vehicle or selected comparators on mechanical hyperalgesia, the chronic constriction injury models in rats, a widely accepted model of painful neuropathy (Wang and Wang, 2003) was chosen.
Neuropathy was induced according to the procedure described by Bennett and Xie ([…]). Briefly, rats were anaesthetized with chloral hydrate 400 mg/kg i.p. under aseptic conditions, the right common sciatic nerve was exposed at the level of the middle thigh by blunt dissection. Proximal to the trifurcation, the nerve was carefully freed from the surrounding connective tissue and four chromic cat gut ligatures (4-0, Ethicon, Norderstedt, Germany) were tied loosely around it with about 1 mm spacing. After hemostasis was confirmed, the incision was closed in layers. Then animals were allowed to recover from anesthesia and surgery and were kept one per cage with free access to water and standard laboratory chow. This procedure induces the appearance of hyperalgesia and allodynia in response to mechanical stimuli, which are evident 2-5 days after injury and reach their maximum severity in about 14 days.

MIA-treated rats = assay: MIA-induced knee osteoarthritis model, mechanical hyperalgesia after i.v. administration; type: in vivo, rat
Text: as §1
(§2) Paw mechanical sensitivity was determined using a Randall & Selitto apparatus (Randall and Selitto, 1957) exerting a force that increases at constant rate (32 g/s). The stimulus causing paw withdrawal was evaluated before and at different times after treatment. Results represent the mean of mechanical thresholds for paw withdrawal expressed as grams. To avoid possible damage to the rat paw the maximum applied force was set at 240 g. In the single administration protocol, paw pressure tests were performed before (pre-dose) and at regular intervals after treatment.
A single intra-articular injection of sodium monoiodoacetate (MIA) was introduced into the knee joint of rats according to the method described by Fernihough J et al., 2004. Sodium monoiodoacetate (MIA) inhibits chondrocyte metabolism leading to cartilage degradation in form of osteoarthritic-like focal lesions in the cartilage associated with subchondral bone thickening 14 days after administration (Guingamp et al., 1997). This model therefore can easily and quickly reproduce osteoarthritic-like lesions and functional impairment in rats, similar to that observed in human disease (Guzman et al., 2003). After 7 days post-injection, the inflammatory component subsides and the remaining pain is considered neuropathic in nature. Briefly, rats were deeply anaesthetized with diethyl ether. Following abolition of the hind paw pinch withdrawal reflex, a 27-gauge needle was introduced into the joint cavity between the tibial plateau and femoral condyles. Once in place, 2 mg of MIA were diluted in a volume of […] of 1% CMC (carboxymethylcellulose in water, Sigma-Aldrich, Italy) and injected into one knee joint and the rat was allowed to recover for 14 days prior to pain assessment.

oxaliplatin-treated rats = assay: Oxaliplatin-induced peripheral sensory neuropathy model, hyperalgesia after oral administration; type: in vivo, rat; conditions: p.o.
Text: as §1, §2
Peripheral sensory neuropathy was induced in adult rats, by administration of oxaliplatin (Tocris) at […] i.p. in saline once daily for 5 consecutive days every week for three weeks (cumulative dose 36 mg/kg) according to Cavaletti et al., 2001. Starting from day 21 after the first oxaliplatin administration, the effect of repeated oral administration of racemic unifiram or the preferred inventive composition with an enantiomeric excess of (R)-unifiram of 50% corresponding to a 3:1 (R):(S) ratio of the enantiomers on oxaliplatin-induced mechanical hyperalgesia was assessed.

vincristine-treated rats = assay: Vincristine-induced peripheral sensory neuropathy model, hyperalgesia after oral administration; type: in vivo, rat; conditions: p.o.
Text: as §1, §2

paclitaxel-treated rats = assay: Paclitaxel-induced peripheral sensory neuropathy model, hyperalgesia (paw pressure) after i.v. administration; type: in vivo, rat
Text: as §1, §2
Paclitaxel (2 mg/kg i.p.) was administered on days 1, 3, 5 and 8. Test compounds were dissolved in saline and administered intravenously at the dose of 1 mg/kg to adult male Sprague-Dawley rats (Charles River, Italy, 220-250 g weight). Data were obtained at 0-75 minutes after injection and are expressed as the mean±s.e.m. of six animals. *P<0.05 and **<0.01 vs vehicle+paclitaxel treated rats; °P<0.05 and ^°°P<0.01 vs. NT24336 (R) treated group. […] *P<0.05 and **<0.01 vss vehicle+paclitaxel treated rats.

scopolamine-treated mice = conditions: s.c., passive avoidance, cited from earlier work; for Amnesia reversal, %: at the lowest significant dose

| Structure (SMILES) | Lowest dose at which streptozotocin-induced diabetese-like thermal hyperalgesia is inhibited in a statistically significant manner (P < 0.05) ([1]; 30 min after administration) | Lowest dose at which streptozotocin-induced diabetese-like thermal hyperalgesia is inhibited in a statistically significant manner (P < 0.05) ([1]; 60 min after administration) | Lowest dose at which streptozotocin-induced diabetese-like thermal hyperalgesia is inhibited in a statistically significant manner (P < 0.05) ([1]; 90 min after administration) | Lowest dose at which paclitaxel-induced hyperalgesia is inhibited in a statistically significant manner (P < 0.05) (paclitaxel-treated rats; 15 min after administration) | Lowest dose at which paclitaxel-induced hyperalgesia is inhibited in a statistically significant manner (P < 0.05) (paclitaxel-treated rats; 30 min after administration) | Lowest dose at which paclitaxel-induced hyperalgesia is inhibited in a statistically significant manner (P < 0.05) (paclitaxel-treated rats; 45 min after administration) | Amnesia reversal, % (scopolamine-treated mice) | Lowest Dose at which scopolamine-induced amnesia is reversed in a statistically significant manner (P < 0.01) (scopolamine-treated mice) | also measured |
| --- | --- | --- | --- | --- | --- | --- | --- | --- | --- |
| CNCC[C@H](Oc1cccc2ccccc12)c1cccs1 [Duloxetine, reference compound] | 30 mg/kg | 30 mg/kg | 30 mg/kg | – | – | – | – | – | Lowest dose at which streptozotocin-induced diabetese-like thermal hyperalgesia is inhibited in a statistically significant manner (P < 0.05) ([1]; 120 min after administration): 30 mg/kg |
| O=C1CC[C@@H]2CN(S(=O)(=O)c3ccccc3F)CCN12 [NT-24336, 2-(2-fluorobenzenesulfonyl)hexahydropyrrolo[1,2-a]pyrazin-6-one] | 30 mg/kg | 30 mg/kg | 30 mg/kg | 3 mg/kg | 3 mg/kg | 3 mg/kg | – | – | Lowest dose at which CCI-induced mechanical allodynia is inhibited in a statistically significant manner (P < 0.05) (CCI rats; 30 min after administration): 1 mg/kg; Lowest dose at which CCI-induced mechanical allodynia is inhibited in a statistically significant manner (P < 0.05) (CCI rats; 60 min after administration): 3 mg/kg; Lowest dose at which CCI-induced mechanical allodynia is inhibited in a statistically significant manner (P < 0.05) (CCI rats; 90 min after administration): 3 mg/kg; Lowest dose at which MIA-induced mechanical hyperalgesia is inhibited in a statistically significant manner (P < 0.05) (MIA-treated rats; 15 min after administration): 3 mg/kg; Lowest dose at which MIA-induced mechanical hyperalgesia is inhibited in a statistically significant manner (P < 0.05) (MIA-treated rats; 30 min after administration): 3 mg/kg; Lowest dose at which MIA-induced mechanical hyperalgesia is inhibited in a statistically significant manner (P < 0.05) (MIA-treated rats; 45 min after administration): 3 mg/kg; Lowest dose at which streptozotocin-induced diabetese-like thermal hyperalgesia is inhibited in a statistically significant manner (P < 0.05) ([1]; 120 min after administration): 30 mg/kg; Lowest dose at which oxaliplatin-induced hyperalgesia is inhibited in a statistically significant manner (P < 0.05) (oxaliplatin-treated rats; 30 min after administration): 1 mg/kg; Lowest dose at which oxaliplatin-induced hyperalgesia is inhibited in a statistically significant manner (P < 0.05) (oxaliplatin-treated rats; 60 min after administration): 1 mg/kg; Lowest dose at which oxaliplatin-induced hyperalgesia is inhibited in a statistically significant manner (P < 0.05) (oxaliplatin-treated rats; 90 min after administration): 1 mg/kg; Lowest dose at which oxaliplatin-induced hyperalgesia is inhibited in a statistically significant manner (P < 0.05) (oxaliplatin-treated rats; 120 min after administration): >10 mg/kg; Lowest dose at which vincristine-induced hyperalgesia is inhibited in a statistically significant manner (P < 0.05) (vincristine-treated rats; 30 min after administration): 10 mg/kg; Lowest dose at which vincristine-induced hyperalgesia is inhibited in a statistically significant manner (P < 0.05) (vincristine-treated rats; 60 min after administration): 10 mg/kg; Lowest dose at which vincristine-induced hyperalgesia is inhibited in a statistically significant manner (P < 0.05) (vincristine-treated rats; 90 min after administration): 10 mg/kg; Lowest dose at which vincristine-induced hyperalgesia is inhibited in a statistically significant manner (P < 0.05) (vincristine-treated rats; 120 min after administration): >10 mg/kg |
| O=C1CCC2CN(S(=O)(=O)c3ccc(F)cc3)CCN12 (racemic) [NT-24617, (RS)-2-[(4-fluorophenyl)sulfonyl]hexahydropyrrolo[1,2-a]pyrazin-6-one] | – | – | – | 3* mg/kg | 3 mg/kg | 3 mg/kg | 100% | 0.001 mg/kg | Lowest dose at which paclitaxel-induced hyperalgesia is inhibited in a statistically significant manner (P < 0.05) (paclitaxel-treated rats; 60 min after administration): >3 mg/kg |
| O=C1CCC2CN(S(=O)(=O)c3ccc(F)cc3)CCN12 (centres unmarked) [NT-24234, 2-(4-fluorophenyl)sulfonyl-hexahydropyrrolo[1,2-a]pyrazin-6(2H)-one] | – | – | – | 1 mg/kg | 3 mg/kg | >10 mg/kg | 78% | 0.003 mg/kg | – |
| O=C1CCC2CN(S(=O)(=O)c3cccc(F)c3)CCN12 (centres unmarked) [NT-24337, 2-(3-fluorophenyl)sulfonyl-hexahydropyrrolo[1,2-a]pyrazin-6(2H)-one] | 10 mg/kg | 10 mg/kg | 10 mg/kg | 3 mg/kg | 3 mg/kg | 3 mg/kg | – | – | Lowest dose at which CCI-induced mechanical allodynia is inhibited in a statistically significant manner (P < 0.05) (CCI rats; 30 min after administration): 1 mg/kg; Lowest dose at which CCI-induced mechanical allodynia is inhibited in a statistically significant manner (P < 0.05) (CCI rats; 60 min after administration): 1 mg/kg; Lowest dose at which CCI-induced mechanical allodynia is inhibited in a statistically significant manner (P < 0.05) (CCI rats; 90 min after administration): 3 mg/kg; Lowest dose at which MIA-induced mechanical hyperalgesia is inhibited in a statistically significant manner (P < 0.05) (MIA-treated rats; 15 min after administration): 3 mg/kg; Lowest dose at which MIA-induced mechanical hyperalgesia is inhibited in a statistically significant manner (P < 0.05) (MIA-treated rats; 30 min after administration): 3 mg/kg; Lowest dose at which MIA-induced mechanical hyperalgesia is inhibited in a statistically significant manner (P < 0.05) (MIA-treated rats; 45 min after administration): 3 mg/kg |
| O=C1CCC2CN(S(=O)(=O)c3cccc(F)c3)CCN12 (centres unmarked) [NT-24782, 2-(3-fluorophenyl)sulfonyl-hexahydropyrrolo[1,2-a]pyrazin-6(2H)-one] | – | – | – | >3 mg/kg | >3 mg/kg | >3 mg/kg | – | – | – |
| O=C1CCC2CN(S(=O)(=O)c3ccc(F)cc3)CCN12 (centres unmarked) [NT-24266, 2-(4-fluorophenyl)sulfonyl-hexahydropyrrolo[1,2-a]pyrazin-6(2H)-one] | – | – | – | 1 mg/kg | 3 mg/kg | >10 mg/kg | 75% | 0.001 mg/kg | – |
